Test results: article PMC3433414, “Oral Administration of the Pimelic Diphenylamide HDAC Inhibitor HDACi 4b Is Unsuitable for Chronic Inhibition of HDAC Activity in the CNS In Vivo” (PLoS ONE, 2012)
pIC50, pKi: −log10 of the molar value. In brackets after ≈: the same amount, converted by molar mass.

Experiments:
CCK1 (CCKA) (h) = target: T1, CCK1 (CCKA) (h) (Homo sapiens, UniProt P32238); experiment: Cerep binding, agonist radioligand (CCK-8S); conditions: for inhibition at 10 µM: read-out: % inhibition of control specific binding
T1 construct: Cerep
T1 sequence (P32238 1-428): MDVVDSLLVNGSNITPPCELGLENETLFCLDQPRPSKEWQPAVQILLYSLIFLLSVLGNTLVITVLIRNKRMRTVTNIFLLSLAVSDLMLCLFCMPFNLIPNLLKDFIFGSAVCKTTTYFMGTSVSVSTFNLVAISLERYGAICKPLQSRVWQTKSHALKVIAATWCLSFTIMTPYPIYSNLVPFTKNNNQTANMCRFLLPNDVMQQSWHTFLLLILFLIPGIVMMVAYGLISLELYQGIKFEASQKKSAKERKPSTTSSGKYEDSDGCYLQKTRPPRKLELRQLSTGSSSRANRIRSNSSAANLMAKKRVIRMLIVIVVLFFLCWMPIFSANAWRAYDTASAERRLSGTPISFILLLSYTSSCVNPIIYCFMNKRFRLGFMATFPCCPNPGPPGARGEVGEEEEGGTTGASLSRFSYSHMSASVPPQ
Source text: (§1) In addition to the HDAC profiling performed, we also queried 4b for any apparent potential off-target effects, which could complicate any finding of efficacy or adverse events in vivo due to ‘polypharmacy’. This was accomplished by screening against a ‘diversity panel’ of 72 binding and 29 enzyme assays, comprised of roughly equal numbers of selective central and peripheral therapeutically relevant targets (Cerep Diversity Profile). This panel included representative targets from diverse enzyme families, G protein coupled receptors, steroid nuclear receptors, voltage- and ligand-gated ion channels. While not totally inclusive, it is a useful tool for discovery compounds to assess their viability as proof of concept molecules to specifically query a particular target. 4b was initially screened at 10 µM in duplicate. The full set of results is provided as Table S1. […] This clean in vitro profile was considered acceptable to proceed to ADME and pharmacokinetic studies.
Supplementary file pone.0044498.s001.tif: Figure S1 Displacement of CCK-8S (agonist radioligand) from the CCK1 receptor by 4b and C1. (TIF) Click here for additional data file.

ER (non‐selective) (h) = experiment: Cerep binding, agonist radioligand; design: species or system human; conditions: 10 μM
Source text: as §1

Plasma stability = type: in vitro ADME, mouse; conditions: fresh mouse plasma, 5 µM; for half-life at 5 µM: pooled mouse plasma, duplicates
Experimental: Incubations of test compound (5 µM initial concentration, n = 2) were carried out with pooled mouse plasma or BSA (45 mg/mL in 0.1 M phosphate buffered saline). The incubations were performed at 37°C. Samples (50 µL) were obtained from the incubation at 0, 10, 30, 120, 240, 360 and 1440 min, and added to 150 µL of acetonitrile containing carbamazepine as analytical internal standard to terminate the reaction. Samples were centrifuged and the supernatant fractions analysed by LC-MS/MS.
For half-life determinations, the instrument responses (peak areas) normalized for internal standard response, were referenced to the zero time-point samples (as 100%) in order to determine the percentage of compound remaining. Ln plots of the % remaining, for each compound, were used to determine the half-life for the plasma incubations. Half-life values were calculated from the relationship:-. [drawing 1] Where λ was the slope of the natural logarithmic (Ln) concentration vs time curve.
When quantification was required, calibration standards for parent compound and metabolites were prepared in control plasma and extracted and analysed as described for the study samples. Quantification of parent compound or metabolite was by extrapolation from the calibration line.

[1] = Solubility in water, formulations and DMSO; type: physicochemical
Experimental: Thomas and colleagues reported that a solution of 4b at 1 mg/mL was previously obtained using this procedure. […] We therefore prepared both TFA and hydrochloride (HCl) salts of 4b to establish whether they could offer improved solubility. Neither salt form of 4b was particularly soluble in water (<1 mg/ml). […] A study of the stability of the TFA salt also raised another more worrying issue in the use of 2-hydroxypropyl-β-cyclodextrin–complexed 4b salts for potential in vivo studies. […] The 4b. TFA cyclodextrin suspension targeted at 1 mg/ml with heating gave an initial (day 1) measured value of 0.75 mg/ml total 4b, with only 0.27 mg/mL solubilised as quantified in the sample after filtration. The lower than expected initial quantification of 4b was most likely due to the TFA salt rapidly degrading upon heating. Indeed, we always found the presence of the cyclised benzimidazole conversion product, named throughout as product C1, in the salt formulations even at t = 0 after preparation. Furthermore, the suspension was not stable upon standing in the dark with gentle shaking at room temperature, with a further 28% decrease observed in parent (4b) concentration on day 7 analysis, compared to day 1.
As a consequence de novo formulation attempts were made with the stable free base form. After several trials with different excipients, we were able to reach a soluble formulation preparation of 1 mg/ml 4b in 2% N-methyl-2-pyrollidone, 18% polyethylene glycol 400, 10% solutol HS-15 and 70% (1% Lutrol F68 in water), a vehicle which we have previously used without any adverse effects in R6/2 model chronic efficacy trials, but is unlikely to be palatable to mice in drinking water. With this concentration, a single oral gavage dose will result in a maximum of 10 mg/kg dose level (assuming a maximum dose volume of […]), considerably lower than that estimated to have been used by Thomas et al (150 mg/kg day in drinking water). In an attempt to replicate the original dose level as close as possible, it became necessary to formulate the test compound in suspension. We achieved a stable homogeneous suspension of free base 4b up to 100 mg/ml in 0.5% carboxymethylcellulose (medium viscosity) in reverse osmosis deionized (RODI) water. This suspension was used to evaluate the oral pharmacokinetics of 4b in mice. […]

Row | SMILES | inhibition at 10 µM (CCK1 (CCKA) (h)) | pKi (CCK1 (CCKA) (h); follow up concentration-effect curve) | % inhibition of control specific binding (ER (non‐selective) (h)) | time to complete conversion to amide hydrolysis products (M1 and M2) (Plasma stability) | half-life at 5 µM (Plasma stability) | solubility ([1]; NMP/PEG400/Solutol HS-15/Lutrol F68 aqueous vehicle, aqueous with cosolvent or surfactant or cyclodextrin, free base, 2% N-methyl-2-pyrollidone, 18% polyethylene glycol 400, 10% solutol HS-15, 70% (1% Lutrol F68 in water), read-out: soluble formulation concentration) | 4b dissolved (filtrate of suspension) ([1]; free base, 2-hydroxypropyl-β-cyclodextrin 1∶5 molar ratio, target 1 mg/mL) | solubility in water ([1]; neutral pH, free base) | solubility in DMSO ([1]; prepared at 1 mg/ml) | pIC50 (CCK1 (CCKA) (h); read-out: IC50, displacement of CCK1 agonist radioligand binding) | solubility in aqueous media [1]
1 | Nc1ccccc1NC(=O)CCCCCC(=O)Nc1ccccc1 [Compound 4b] | 72% | 5.07 | 2% | ≤ 6 h | 1.9 h | 1000 µg/mL (≈ 3.07 mM) | 0.1 mg/mL | highly insoluble | soluble |  | 
2 | O=C(CCCCCc1nc2ccccc2[nH]1)Nc1ccccc1 [Compound C1, 6-(1-H-benzo[d]imidazol-2-yl)-N-phenylhexanamide] | 68% |  | 4% |  | 3.6 h |  |  |  |  | 5.21 | readily soluble
